Laboratory results taken from US8762074B2, “Optimizing culture medium for CD34<+> hematopoietic cell expansion” (Sino-Cell Technologies, priority 2004, dated 2014).

How the values were obtained:
[1] = test system: WBC; assay: Ex vivo expansion culture of UCB CD133+/CD34+ cells, WBC growth (cell density at day 7); type: cell-based, human; conditions: for effect on WBC growth: per Eq. (2), serum-containing IMDM; for regression coefficient of first-order model, Eq. (4): from Table 5, serum-containing medium, +1 = 10 ng/ml; for regression coefficient of first-order model, Eq. (6): from Table 7, IMDM containing TISF; for regression coefficient of first-order model, Eq. (8): from Table 8, cytokine-containing medium
Method: (§1) The UCB of full-termed healthy newborns, included uneventful vaginal births or cesarean sections, was harvested with a standard 250-ml blood bag containing citrate-phosphate-dextrose-adenine anticoagulant (Terumo, Shibuya-ku, Tokyo, Japan).
(§2) Buffy coat cells were obtained from UCB samples by centrifugation (700×g for 20 min), and were diluted with an equal volume of wash buffer (Dulbecco's phosphate buffered saline (D-PBS, Sigma, St. Louis, Mo.) contain 2 mM EDTA (Sigma)). Then the Buffy coat cells were layered onto Ficoll-Paque (ρ=1.077 g/ml, Amersham Biosciences, Uppsala, Sweden) density gradients to deplete red blood cells (RBC) (700×g for 40 min). The mononuclear cell (MNC) interface was collected, diluted into four volumes of wash buffer, and centrifuged to pellet the cells (700×g for 10 min). The MNC pellet was washed twice and resuspended in MACS buffer (D-PBS contained 0.5% bovine serum albumin (BSA, Sigma) and 2 mM EDTA) for CD133<+> cell purification. CD133<+> cord blood cells were isolated using the Miltenyi VarioMACS device (Miltenyi Biotec, Bergisch Gladbach, Germany), according to the manufacturer's instruction. Briefly, UCB MNC were incubated for 30 min at 4° C. with human IgG to block the Fc receptors and mouse monoclonal antibody to human CD133 microbead (Miltenyi Biotec). Labeled cells were applied to magnetic column (LS column, Miltenyi Biotec). Then, unbound cells were washed out, and CD133<+> cells were eluted from the column with MACS buffer. To improve the purity of the CD133+ (or CD34<+>) cells, a secondary purification cycle was performed with the same way. Then the cells were sampled for CD34<+> analysis to determine yield, purity and viability and assayed for colony-forming cells (CFC) as day 0 for control. To expand cells, CD133<+> cells were seeded at a concentration of 5×10^4 cells/ml in 24-well plate (1 ml per well, Falcon, N.J.) with variable serum substitutes, cytokines and medium according to experiment design. After 7 days, the cells were analyzed to compare with the day 0 control (all experiments were repeated at least four times).
(§3) Two-level factorial design followed the method of steepest ascent was carried out to find the optimal concentration of serum substitutes and cytokines for CD34<+> cells expansion. Fractional and full factorial design data were regressed by SPSS software (SPSS Inc. In: SPSS for Windows, base system user's guide. Release 6.0. Chicago, Ill.: SPSS Inc.; 1993. p. 235-47) to obtain the first order polynomial. Its statistical significance was determined by an F-test and the significance of the regression coefficients was analyzed by a t-test. The polynomial takes the form of White blood cell or CD34<+> cell (cells/ml)=β0+βiXi (1) where β's are the regression constants and X's are coded variables for the tested additives.

[2] = test system: CD34<+> hematopoietic cells; assay: Ex vivo expansion culture of UCB CD133+/CD34+ cells, CD34+ cell growth by flow cytometry (cell density at day 7); type: cell-based, human; conditions: for effect on CD34<+> cell growth/expansion: per Eq. (3), serum-containing IMDM; for regression coefficient of first-order model, Eq. (5): from Table 5, +1 = 10 ng/ml; for regression coefficient of first-order model, Eq. (7): from Table 7, IMDM containing TISF; for regression coefficient of first-order model, Eq. (9): from Table 8, cytokine-containing medium
Method: as §1, §2
Cells before and after expanding culture were analyzed by two-color flow cytometry on a FACSCaliber analyzer (Becton-Dickinson, NJ, USA). About 1×10^6 cells were stained with FITC-conjugated anti-human CD45 and Peconjugated anti-human CD34, and gated for CD45<+>CD34<+> cells with low side scatter, according to the CD34 enumeration protocols developed by the International Society of Hematotherapy and Graft Engineering (ISHAGE) (Sutherland Dr, et al, J Hematother 1996; 5:231-8). A replicate sample was stained with FITC-antiCD45 and PE-mouse IgG1 as an isotype control to ensure specificity.
as §3

[3] = 2^9−5 fractional factorial design in IMDM containing BIT2 (data not shown)
[4] = per Eqs. (10) and (11), serum-free IMDM + BIT2
[5] = per Eqs. (4) and (5), serum-containing medium
[6] = per Eqs. (6) and (7), serum substitutes in IMDM containing TISF
[7] = per Eqs. (8) and (9), serum substitutes in serum-free medium

Molecule	effect on WBC growth [1]	effect on WBC and CD34<+> cell growth [2, 3]	effect on CD34<+> cell growth/expansion [2]	effect on WBC and CD34<+> cell growth [2, 4]	regression coefficient of first-order model, Eq. (4) [1]	regression coefficient of first-order model, Eq. (5) ([2]; serum-containing medium)	effect on WBC and CD34<+> cell growth [2, 5]	regression coefficient of first-order model, Eq. (6) [1]	regression coefficient of first-order model, Eq. (8) [1]	regression coefficient of first-order model, Eq. (7) [2]	regression coefficient of first-order model, Eq. (9) [2]	effect on WBC and CD34<+> cell growth [2, 6]	effect on WBC and CD34<+> cell growth [2, 7]
granulocyte-macrophage colony-stimulating factor [GM-CSF]	positive	could facilitate WBC and CD34<+> cell growth	negative	positively affected WBC and CD34<+> cell growth									
thrombopoietin [TPO]	stronger effects than the other cytokines	could facilitate WBC and CD34<+> cell growth	can stimulate CD34<+> cell expansion	positively affected WBC and CD34<+> cell growth	0.413 10^6 WBC cells/ml	0.172 10^6 CD34<+> cells/ml	facilitated WBC and CD34<+> cell growth						
insulin								1.250 10^5 WBC cells/ml	0.131 10^6 WBC cells/ml	0.231 10^5 CD34<+> cells/ml	0.053 10^6 CD34<+> cells/ml	can stimulate both WBC and CD34<+> cell growth	could promote WBC and CD34<+> cell growth instead of serum
stem cell factor [SCF]	stronger effects than the other cytokines	could facilitate WBC and CD34<+> cell growth	can stimulate CD34<+> cell expansion	positively affected WBC and CD34<+> cell growth	0.387 10^6 WBC cells/ml	0.162 10^6 CD34<+> cells/ml	facilitated WBC and CD34<+> cell growth						
IL-6: recombinant human interleukin-6, purchased from R&D systems		could facilitate WBC and CD34<+> cell growth	less positive effects than TPO, IL-3, SCF and FL	positively affected WBC and CD34<+> cell growth									
bovine serum albumin [BSA]								2.625 10^5 WBC cells/ml	0.362 10^6 WBC cells/ml	0.945 10^5 CD34<+> cells/ml	0.302 10^6 CD34<+> cells/ml	can stimulate both WBC and CD34<+> cell growth	could promote WBC and CD34<+> cell growth instead of serum
OCCS [Trial 2-ME, 2-mercaptoethanol]								0.875 10^5 WBC cells/ml	0.069 10^6 WBC cells/ml	0.311 10^5 CD34<+> cells/ml	0.025 10^6 CD34<+> cells/ml	can stimulate both WBC and CD34<+> cell growth	could promote WBC and CD34<+> cell growth instead of serum
Transferrin [TF]									0.7 10^6 WBC cells/ml	0.120 10^5 CD34<+> cells/ml	0.303 10^6 CD34<+> cells/ml	can stimulate both WBC and CD34<+> cell growth	could promote WBC and CD34<+> cell growth instead of serum
C[C@]12CCC(=O)C=C1CC[C@@H]1[C@@H]2[C@@H](O)C[C@@]2(C)[C@H]1CC[C@]2(O)C(=O)CO [HC, hydrocortisone, reference compound]								0.5 10^5 WBC cells/ml					
granulocyte colonystimulating factor (protein, UniProt P09919 31-207, looked up, recombinant human growth factor) Granulocyte …: TPLGPASSLPQSFLLKCLEQVRKIQGDGAALQEKLVSECATYKLCHPEELVLLGHSLGIPWAPLSSCPSQALQLAGCLSQLHSGLFLYQGLLQALEGISPELGPTLDTLQLDVADFATTIWQQMEELGMAPALQPTQGAMPAFASAFQRRAGGVLVASHLQSFLEVSYRVLRHLAQP		could facilitate WBC and CD34<+> cell growth	less positive effects than TPO, IL-3, SCF and FL	positively affected WBC and CD34<+> cell growth									
Flt-3 ligand (protein, UniProt P49771 27-235, looked up, recombinant human growth factor) Fms-related tyrosine kinase 3 …: TQDCSFQHSPISSDFAVKIRELSDYLLQDYPVTVASNLQDEELCGGLWRLVLAQRWMERLKTVAGSKMQGLLERVNTEIHFVTKCAFQPPPSCLRFVQTNISRLLQETSEQLVALKPWITRQNFSRCLELQCQPDSSTLPPPWSPRPLEATAPTAPQPPLLLLLLLPVGLLLLAAAWCLHWQRTRRRTPRPGEQVPPVPSPQDLLLVEH	stronger effects than the other cytokines	could facilitate WBC and CD34<+> cell growth	can stimulate CD34<+> cell expansion	positively affected WBC and CD34<+> cell growth	0.237 10^6 WBC cells/ml	0.110 10^6 CD34<+> cells/ml	facilitated WBC and CD34<+> cell growth						
IL-6 sR: IL-6 sR (soluble receptor), purchased from R&D systems (protein, UniProt P08887 20-365, looked up, extracellular domain, IL-6 sR (soluble receptor), purchased from R&D systems) extracellular domain: LAPRRCPAQEVARGVLTSLPGDSVTLTCPGVEPEDNATVHWVLRKPAAGSHPSRWAGMGRRLLLRSVQLHDSGNYSCYRAGRPAGTVHLLVDVPPEEPQLSCFRKSPLSNVVCEWGPRSTPSLTTKAVLLVRKFQNSPAEDFQEPCQYSQESQKFSCQLAVPEGDSSFYIVSMCVASSVGSKFSKTQTFQGCGILQPDPPANITVTAVARNPRWLSVTWQDPHSWNSSFYRLRFELRYRAERSKTFTTWMVKDLQHHCVIHDAWSGLRHVVQLRAQEEFGQGEWSEWSPEAMGTPWTESRSPPAENEVSTPMQALTTNKDDDNILFRDSANATSLPVQDSSSVPLP	inhibited WBC growth												
